The target of test [1] is T1, Thyrotropin receptor (Homo sapiens, UniProt P16473). The test can be described thus: Agonist activity at TSHR (unknown origin) stably expressed in HEK293 cells assessed as intracellular cAMP accumulation incubated for 1 hr. The format is functional, cell-based.
The target of test [2] is T1, Thyrotropin receptor. Put plainly: Agonist activity at N-terminal HA-tagged TSHR (unknown origin) assessed as intracellular calcium level measured for 60 mins by HTS assay. The test is classed as functional, cell-based. (In general: Calcium assays in cells follow changes in intracellular calcium, usually with a dye or a luminescent sensor.)
The target of test [3] is Lutropin-choriogonadotropic hormone receptor (Homo sapiens, UniProt P22888). Put plainly: Agonist activity at LHCGR (unknown origin). The test is classed as functional.
In test [4] the target is T2, Follicle-stimulating hormone receptor (Homo sapiens, UniProt P23945).
T2 sequence (P23945 whole entry): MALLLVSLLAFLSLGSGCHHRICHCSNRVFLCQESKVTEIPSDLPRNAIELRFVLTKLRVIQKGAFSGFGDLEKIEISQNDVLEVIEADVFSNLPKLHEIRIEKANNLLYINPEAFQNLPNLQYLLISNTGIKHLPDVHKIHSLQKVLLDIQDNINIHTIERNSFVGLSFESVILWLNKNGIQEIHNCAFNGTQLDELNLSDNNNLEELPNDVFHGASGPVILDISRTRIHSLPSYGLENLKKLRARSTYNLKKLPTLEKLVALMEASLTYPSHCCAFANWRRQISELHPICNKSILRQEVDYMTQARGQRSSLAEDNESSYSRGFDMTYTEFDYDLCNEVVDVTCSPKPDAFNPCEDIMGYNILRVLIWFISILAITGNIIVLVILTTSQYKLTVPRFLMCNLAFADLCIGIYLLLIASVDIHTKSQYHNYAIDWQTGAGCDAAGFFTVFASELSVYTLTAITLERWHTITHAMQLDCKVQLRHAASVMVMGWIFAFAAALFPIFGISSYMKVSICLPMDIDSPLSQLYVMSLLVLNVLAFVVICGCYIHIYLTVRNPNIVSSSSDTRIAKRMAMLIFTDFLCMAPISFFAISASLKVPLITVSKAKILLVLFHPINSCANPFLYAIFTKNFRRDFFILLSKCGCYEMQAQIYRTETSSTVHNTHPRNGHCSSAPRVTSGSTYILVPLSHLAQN
Put plainly: Agonist activity at FSHR (unknown origin). The format is functional.

Test [5] has as its target T1, Thyrotropin receptor. The test can be described thus: Inverse agonist activity at TSH receptor (unknown origin) stably expressed in HEK293 cells assessed as reduction in TSH-induced cAMP production incubated for 40 mins by ELISA analysis. The test is classed as functional, cell-based. (In general: Cyclic AMP is a second messenger, typically raised through Gs and lowered through Gi signalling.)

In test [6] the target is T1, Thyrotropin receptor. The test can be described thus: Agonist activity at TSHR (unknown origin). The test is classed as functional.
In test [7] the target is T1, Thyrotropin receptor. Put plainly: Agonist activity at N-terminal HA-tagged TSHR (unknown origin) stably expressed in CHO cells assessed as change in intracellular […] level incubated for 60 mins by CRE-driven luciferase reporter based microplate reader. The format is functional, cell-based.
Test [8] deals with T1, Thyrotropin receptor. Put plainly: Agonist activity at TSHR (unknown origin) expressed in CHO cells. The test is classed as functional, cell-based.
Test [9] is described as follows: Inhibition of b-TSH-induced C-terminal GFP-tagged mouse TSHR activation expressed in HEK293 cells by cAMP assay. The test is classed as cell-based.

Some results are limits rather than exact numbers.

Sequence of Lutropin-choriogonadotropic hormone receptor (P22888 whole entry): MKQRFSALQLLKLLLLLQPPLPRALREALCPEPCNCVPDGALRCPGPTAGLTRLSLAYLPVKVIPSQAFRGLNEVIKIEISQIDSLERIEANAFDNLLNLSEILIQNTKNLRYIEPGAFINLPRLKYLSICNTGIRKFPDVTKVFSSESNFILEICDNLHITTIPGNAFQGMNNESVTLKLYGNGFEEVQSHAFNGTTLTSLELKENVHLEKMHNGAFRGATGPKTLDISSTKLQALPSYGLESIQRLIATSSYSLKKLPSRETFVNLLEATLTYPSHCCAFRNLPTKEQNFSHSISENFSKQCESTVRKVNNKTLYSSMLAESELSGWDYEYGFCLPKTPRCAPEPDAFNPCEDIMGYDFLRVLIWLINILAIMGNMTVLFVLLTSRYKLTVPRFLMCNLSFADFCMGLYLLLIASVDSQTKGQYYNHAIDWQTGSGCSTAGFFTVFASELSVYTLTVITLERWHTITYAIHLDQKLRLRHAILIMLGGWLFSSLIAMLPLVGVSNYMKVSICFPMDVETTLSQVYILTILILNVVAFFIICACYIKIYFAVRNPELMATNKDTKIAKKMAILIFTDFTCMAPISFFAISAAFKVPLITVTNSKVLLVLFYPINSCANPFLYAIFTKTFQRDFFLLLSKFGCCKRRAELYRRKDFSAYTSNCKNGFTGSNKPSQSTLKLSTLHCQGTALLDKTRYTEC
T1 sequence (P16473 whole entry): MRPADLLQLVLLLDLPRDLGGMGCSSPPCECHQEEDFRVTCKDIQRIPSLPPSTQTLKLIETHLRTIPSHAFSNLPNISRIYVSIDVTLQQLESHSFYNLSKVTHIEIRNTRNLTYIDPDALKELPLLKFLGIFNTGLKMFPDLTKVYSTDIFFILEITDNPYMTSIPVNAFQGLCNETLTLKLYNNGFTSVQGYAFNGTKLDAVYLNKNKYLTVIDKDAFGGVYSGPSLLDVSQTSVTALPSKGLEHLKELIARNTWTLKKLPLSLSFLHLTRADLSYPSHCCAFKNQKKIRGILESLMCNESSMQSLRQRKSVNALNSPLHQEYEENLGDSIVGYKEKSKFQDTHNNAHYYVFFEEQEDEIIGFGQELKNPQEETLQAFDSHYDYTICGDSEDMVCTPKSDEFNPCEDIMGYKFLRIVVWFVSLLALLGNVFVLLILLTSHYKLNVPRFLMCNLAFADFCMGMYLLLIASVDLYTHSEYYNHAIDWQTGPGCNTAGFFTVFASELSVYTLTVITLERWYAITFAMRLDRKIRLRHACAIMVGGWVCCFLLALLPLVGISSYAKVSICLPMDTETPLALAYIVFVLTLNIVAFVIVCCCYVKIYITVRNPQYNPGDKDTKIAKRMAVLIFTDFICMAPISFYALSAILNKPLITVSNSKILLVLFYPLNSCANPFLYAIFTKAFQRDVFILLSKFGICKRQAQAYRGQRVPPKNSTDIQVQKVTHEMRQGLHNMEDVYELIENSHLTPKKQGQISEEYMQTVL

For the molecule `COc1ccc(C2Nc3cccc(O)c3C(=O)N2Cc2ccccc2)cc1COc1ccc(NC(C)=O)cc1` (stereo unspecified), the 50% effective concentration (EC50) (as a rule, the midpoint of the concentration-response curve) at Thyrotropin receptor [1] worked out at 40 nM.

On to `CNc1nc(-c2c(-c3ccccc3)[nH]c3ccccc23)cs1`, for which, on Thyrotropin receptor [2], the EC50 worked out at 12300 nM.

As to `COc1ccc(C2Nc3ccccc3C(=O)N2Cc2ccco2)cc1COc1c(C)cccc1C` (stereo unspecified), the EC50 in test [3] was 480 nM. Moreover, in test [4], the IC50 (as a rule, the concentration that gives 50% inhibition) worked out at 4600 nM.

`COc1ccc(C2Nc3ccccc3C(=O)N2Cc2ccco2)cc1COc1c(C)cc(NC(C)=O)cc1C` (stereo unspecified) displayed an EC50 in [3] of over 30000 nM. Moreover, the IC50 was over 30000 nM in [4] and 2300 nM on Thyrotropin receptor [5].

`CC(c1ccccc1)c1nc(N2CCNCC2)nc2ccccc12` (stereo unspecified): at Thyrotropin receptor [6], a half-maximal response (EC50) required 11.6 nM.

For the molecule `COc1ccc(C2Nc3ccccc3C(=O)N2Cc2ccco2)cc1COc1ccc(NC(C)=O)cc1` (stereo unspecified), at Thyrotropin receptor [1], the EC50 came to 600 nM.

Turning to `COc1cccc(-c2nc(SC)nc3sc(C(=O)NC(C)(C)C)c(N)c23)c1`, in test [3], a half-maximal effect (EC50) was put at 350 nM.

Consider `CC(C)N(C(=O)c1cc(-c2ccccc2)nc2ccccc12)C(C)C`, for which the EC50 was over 10000 nM in test [3] and 130 nM on Thyrotropin receptor [7].

`CCCc1ccc(-c2cc(C(=O)NCc3ccncc3)c3ccccc3n2)cc1`: the concentration for a half-maximal effect (EC50) on Thyrotropin receptor [6] and on Thyrotropin receptor [8] was 8.3 nM each time.

Turning to `COC/C=C/c1ccc(-c2nc(SC)nc3sc(C(=O)NC(C)(C)C)c(N)c23)cc1`, the EC50 on Thyrotropin receptor [8] was determined as 4.2 nM.

Take `COc1ccc(C2Nc3ccccc3C(=O)N2Cc2cccnc2)cc1COc1c(C)cccc1C` (stereo unspecified): in test [3], the 50% effective concentration (EC50) was over 30000 nM. Besides, the IC50 is over 30000 nM in [4] and 3500 nM on Thyrotropin receptor [5].

Regarding `O=C1[C@@H]2[C@H]3C[C@H]([C@@H]4Sc5[nH]c(=O)sc5[C@@H](c5ccccc5)[C@H]34)[C@@H]2C(=O)N1c1ccccc1`, the concentration for half-maximal inhibition (IC50) in test [9] worked out at 40000 nM.

With `CC1=C(C(=O)OCc2ccccc2)C(c2ccc(C(F)(F)F)cc2)NC(=O)N1` (stereo unspecified), the EC50 in test [3] is over 10000 nM; at Thyrotropin receptor [7] it was 540 nM.
